This note sets out measurements from PubChem BioAssay (NCI).

Common to all, as to experiment: DTP human tumour cell line panel, 48 h
For test [1], the system named is BT-549 breast.
For test [2], the system named is DU-145 prostate.
In test [3] the test system is HCT-116 colon.
Test [4] deals with HOP-62 NSCLC.
Test [5] has as its system HOP-92 NSCLC.
For test [6], the system named is HS 578T breast.
The subject of test [7] is IGROV1 ovarian.
Test [8] concerns MALME-3M melanoma.
The test system of test [9] is MCF7 breast.
Test [10] deals with MDA-MB-435.
Test [11] relates to MDA-N.
For test [12], the system named is NCI-H226 lung.
Test [13] has as its system OVCAR-8 ovarian.
Test [14] deals with RPMI-8226 leukemia.
Test [15] concerns SK-MEL-5 melanoma.
Test [16] relates to SK-OV-3 ovarian.
The test system of test [17] is T-47D breast.
Test [18] has as its system UACC-257 melanoma.
In test [19] the test system is HCT-15 colon.
Test [20] has as its system SNB-19 CNS.

Structures are written as SMILES.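 Five compound concentrations were applied to cells in 96-well plates for 48 hours; endpoints were derived by simple linear interpolation of the resulting dose-response curve. The concentration for full growth arrest is given as TGI.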 Some results are limits rather than exact numbers.

In the case of `CC1=CC(=O)[C@@H](O)[C@]2(C)[C@H]3[C@@]4(O)OC[C@@]35[C@@H](C[C@@H]12)OC(=O)C(OC(=O)CC1=CCCC1)[C@H]5[C@@H](C)[C@H]4O` (stereo partly drawn), the concentration for total growth inhibition (TGI) came out at 0.198 µM in test [1]; 4.66 µM in test [2]; 1.42 µM in test [3]; 0.108 µM in test [4]; 1.15 µM in [5]; 0.136 µM in [6]. In addition, the TGI in [7] was found to be 0.112 µM; in test [8], 0.0666 µM; in test [9] it was 0.656 µM; in [10], 0.443 µM; in test [11] it was 0.163 µM; in test [12] it was 0.0632 µM. Further, the TGI in test [13] was 0.139 µM; in [14] it was 0.039 µM; in test [15], 0.0713 µM; in [16] it was 5.04 µM; in [17] it was over 23.2 µM; in test [18], 0.217 µM.
Turning to `OCCCc1cc(O)c2c(c1)C(CO)C(c1ccc(O)c(O)c1)O2` (stereo not drawn), the TGI in test [1], in test [2], in [3], in test [19], in [4] and in test [5] was over 100 µM each time. Also, the TGI in test [6], in test [7], in test [8], in test [9], in test [10] and in [11] was over 100 µM in each case. Moreover, the TGI in test [12], in test [13], in [15], in test [16], in [20] and in [17] was over 100 µM in each case. In [18], this compound showed a TGI of over 100 µM.
With `COc1ccc2nc3cc([N+](=O)[O-])ccc3c(Nc3ccc(S(=O)(=O)N=C(N)N)cc3)c2c1`, the TGI in test [1] was over 100 µM; in test [2] it was over 100 µM; in test [3], 80.5 µM; in test [19] it was over 100 µM; in [4], over 100 µM; in [5], 77.8 µM. The concentration for total growth inhibition (TGI) in [6] was over 100 µM; in [8], 28.5 µM; in test [9], 96.4 µM; in test [10], over 100 µM; in test [11], over 100 µM; in test [12], over 100 µM. In addition, the TGI in test [14] is 42.6 µM; in test [15], 36.4 µM; in [16] it was over 100 µM; in [20], over 100 µM; in [17], 88.7 µM; in [18] it was over 100 µM.
With `O=P(c1ccccc1)(c1ccccc1)c1ccc2c(c1)OCCOCCOCCOCCO2`, the TGI in test [1], in [2], in test [3], in [19], in [4] and in test [6] was over 100 µM throughout. For the same compound, the TGI in test [7], in [8], in test [9], in test [10], in test [11] and in [12] was over 100 µM each time. Also, the TGI in test [13], in test [14], in test [15], in test [16], in test [20] and in [17] was over 100 µM in each case.
For `COc1cc([C@@H]2c3cc4c(cc3[C@@H](OC3OC5COC(C)OC5C(OC(=O)CN5CCN(C)CC5)C3OC(=O)CN3CCN(C)CC3)C3COC(=O)[C@@H]32)OCO4)cc(OC)c1OC(=O)CN1CCN(C)CC1` (stereo partly drawn), the TGI in test [1], in test [2], in [3], in [19], in [4] and in test [5] was over 100 µM each time. Also, the TGI in test [6], in test [7], in test [8], in test [9], in test [10] and in test [11] was over 100 µM each time. The TGI in [12], in [13], in test [15], in test [16], in test [20] and in test [17] was over 100 µM in each case. For the same compound, the TGI in test [18] was over 100 µM.
Turning to `COC(=O)Cc1c(/C=C/C(C)(C)n2cnc(CCN3C(=O)CCC3=O)c2)[nH]c2ccccc12`, the TGI in test [1] was over 100 µM; in [2], over 100 µM; in [3] it was over 100 µM; in [19] it was over 100 µM; in test [5] it was over 100 µM; in test [6], 89.3 µM. For the same compound, the TGI is over 100 µM in test [7]; 97.8 µM in test [8]; over 100 µM in [9]; over 100 µM in [10]; over 100 µM in test [11]; over 100 µM in test [12]. The TGI in test [13] was over 100 µM; in test [15], over 100 µM; in test [16] it was over 100 µM; in test [20], over 100 µM; in test [17], 60.1 µM; in [18] it was over 100 µM.
Take `CCOC(=O)c1c[nH]cc1-c1cn(S(=O)(=O)c2ccccc2)cc1C`: the TGI in [1] is 74.8 µM; in [2] it was over 100 µM; in [3], 58.9 µM; in test [19], 76.4 µM; in test [4], over 100 µM; in test [5] it was over 100 µM. In addition, the TGI in test [6] was 46.2 µM; in test [7], 77.7 µM; in [8] it was 40.4 µM; in test [9], 61 µM; in test [10], over 10 µM; in [11], 48.4 µM. Further, the TGI is over 100 µM in test [13]; over 10 µM in [15]; over 100 µM in [16]; over 100 µM in [20]; over 100 µM in test [17]; 37.6 µM in [18].
